One series has as its target Pgp3 WT (Campylobacter jejuni, UniProt Q0P921). Kind of series: Isothermal-titration calorimetry (ITC) with Pgp3 WT. It is filed as binding, C. jejuni. On the procedure: (§1) The gene encoding the amino-acid sequence of Glu21–Gln273 of Pgp3 from C. jejuni (strain ATCC 33560) was cloned into the expression vector pET-21a (Novagen) producing the recombinant wild-type Pgp3 protein with the C-terminal His6-tag ([…]). The protein expression and purification were conducted according to previously described methods with exception. The HiTrap chelating HP (GE Healthcare) column was washed with the lysis buffer containing 60 mM imidazole and the protein was eluted with a linear gradient from 100 to 500 mM imidazole. The protein was further purified by gel filtration on a HiLoad 16/60 Superdex 200 prep-grade column (GE Healthcare), which was previously equilibrated with 20 mM Tris-HCl pH 8.0 and 200 mM NaCl. The fractions containing the Pgp3 protein were pooled and concentrated to 15 mg mL^−1 for crystallization. The variants of Pgp3 (S169A, R195A, H216A, and H247A) were generated by site-directed mutagenesis using primer sets in Supplementary Table 1 and were purified as described for the WT Pgp3.
Using a micro-syringe, 2.5 μL of each inhibitor (2.25 mM) was added at intervals of 200 s to the Pgp3 solution in the cell with gentle stirring (125 rpm). The same ITC condition was applied to evaluate the KD values of BMK-S101 for each Pgp3 variant. All data were fitted to the single-binding-site model. Fitted curves were generated using GraphPad Prism 7. Data are mean ± SEM from triplicate experiments and the ITC thermograms are representative of triplicate experiments.

A further series has as its target T1, Pgp3 S169A (Campylobacter jejuni, UniProt Q0P921, S169A).
T1 sequence (Q0P921 21-273 S169A): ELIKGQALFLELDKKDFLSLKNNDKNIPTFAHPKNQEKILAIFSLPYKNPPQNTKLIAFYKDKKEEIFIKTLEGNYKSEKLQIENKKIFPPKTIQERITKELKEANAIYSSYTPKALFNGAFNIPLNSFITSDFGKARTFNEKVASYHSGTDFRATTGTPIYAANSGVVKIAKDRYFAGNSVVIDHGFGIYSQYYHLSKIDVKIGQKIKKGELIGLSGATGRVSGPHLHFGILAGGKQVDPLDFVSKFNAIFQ
The experiment in a line: ITC with Pgp3 S169A variant. Type of series: binding, C. jejuni. As to the method:
(§2) To evaluate the contributions of the three residues (Ser169, Arg195, and His216) to binding of BMK-S101, they were substituted to Ala, and the effect of each mutation was evaluated using ITC (Fig. 2d and Supplementary Fig. 1).
as §1, with “Pgp3. […]” for “Pgp3.”

The target in the next series is T2, Pgp3 R195A (Campylobacter jejuni, UniProt Q0P921, R195A).
T2 sequence (Q0P921 21-273 R195A): T1 sequence (Q0P921 21-273 S169A)
The experiment in a line: ITC with Pgp3 R195A variant. Type of series: binding, C. jejuni. As to the method:
as §2
as §1, with “Pgp3. […]” for “Pgp3.”

In the next series the target is T3, Pgp3 H216A (Campylobacter jejuni, UniProt Q0P921, H216A).
T3 sequence (Q0P921 21-273 H216A): T1 sequence (Q0P921 21-273 S169A)
Kind of series: ITC with Pgp3 H216A variant. Type of series: binding, C. jejuni. On the procedure:
as §2
as §1, with “Pgp3. […]” for “Pgp3.”

A further series concerns C. jejuni ATCC 33560 WT. Kind of series: Cell morphology change monitored by TEM. Type of series: cell-based, Campylobacter jejuni. The conditions noted are these: 37 °C, 24 h; for minimum concentration causing morphological changes (helical to curved-rod): KL-L9P used for improved permeability. The source says:
Next, we investigated whether our inhibitors could transform C. jejuni from the helical- to curved-rod morphology on exposure to the inhibitors (Fig. 5). […] To investigate the effect of inhibitors on the morphology of C. jejuni cells, we exposed the cells to the inhibitors and checked whether the morphology could be altered.
Cell-morphology change of C. jejuni upon inhibitor treatment was monitored, as described previously with modifications. Briefly, overnight cultures of C. jejuni were harvested from MH agar plates and suspended in MH broth to approximately 1 × 10^6 colony-forming unit (CFU)/mL. A total of 500 μL of the diluted bacterial culture was added into each well of a 24-well plate with 5 μL of two-fold serial dilutions of inhibitor. For the control strain with no inhibitor, the same volume of dilution buffer (20 mM Tris-HCl pH 8.0 and 200 mM NaCl) was used. The plate was incubated under a micro-aerobic condition at 37 °C for 24 h in the static condition. After incubation, 10 μL of the bacterial cultures was placed on formvar/carbon-coated copper grids (200 mesh) and negatively stained with 2% uranyl acetate for 2 s.

For the next series, the system named is C. jejuni (ATCC 33560). The experiment in a line: Drug accumulation assay (LC-MS). The conditions noted are these: for µM (concentration in LC-MS sample): single replicates (First, Second, Third), total volume 200 (r6-r19) or 100 (r23-r30); for µM (concentration in LC-MS sample) / nmol/1011 CFUs / Total nmol: source data Fig. 5b; for nmol/1011 CFUs / Total nmol: single replicates; for Total nmol: total volume 200 or 100. On the procedure:
The accumulation assay was adapted from two different methods[42],[43]. […] The culture was grown overnight at 42 °C under the micro-aerobic condition. The cells were harvested at 6000 g for 15 min and washed with 1 × PBS, followed by resuspension in pre-warmed 1 × PBS to ~10^10 CFU/mL. The cell suspension (1.2 mL) was dispensed into a 24-well plate. Each compound to be examined was added into each well (final concentration = 100 μM). […] After incubation with shaking at 37 °C for 20 min, OD600 of each sample was measured, and the cells were harvested at 6000 g for 10 min at 4 °C. The pellets were resuspended in 250 μL of water, followed by three cycles of Freeze-Thaw with a dry ice/ethanol bath and a 37 °C-heating block in order to extract the compounds from C. jejuni. The cells were pelleted at 13,000 g for 5 min at room temperature. The supernatants (220 μL) were transferred to new tubes. The pellets were resuspended in 100 μL of methanol with vigorous vortexing for 1 min, followed by pelleting as before. The supernatants (100 μL) were combined with the solutions previously collected. The residual cell debris were removed at 20,000 g for 15 min at room temperature. The supernatants (300 μL) were dried with Genevac™ miVac Centrifugal Concentrator at room temperature for 5 h. Finally, the samples were resuspended with appropriate solvents and analyzed by LC-MS.
The suspension was centrifuged and the supernatant was analyzed by LC-MS. LC-MS systems consists of a Bruker impact II ultra-high resolution Qq-time-of-flight mass spectrometer using Hystar 5.0 SR1 software with a Waters Acquity UPLC H-Class system equipped with a quaternary solvent manager, a sample manager-FTN, and a photodiode array detector. The Bruker electrospray ionization source was operated in the positive ion mode, except for BMK-S301 (in the negative ion mode). […] A four-step 10-min LC gradient was as follows: 3 min at 98:2; 3 min to 85:15; 0.1 min to 98:2; 3.9 min at 98:2 for BMK-S101, -S203, and -S301. The ratio of the mobile phases (A = 0.1% formic acid in water, B = 0.1% formic acid in ACN) is given as A:B in LC gradients. […] The quantification was done by integrating the peak areas from extracted-ion chromatograms of corresponding m/z values of each compound.

The next series addresses Pgp3 (Campylobacter jejuni, UniProt Q0P921). Kind of series: biochemical. More on the design: species or system C. jejuni. As to the method:
Because DABCYL/FITC is a typical FRET quencher–fluorophore pair, an increase in fluorescent signals can be directly detected when it is processed by Pgp3 (Tang et al., 2013). The kinetic parameters (kcat = 0.0209 ± 0.0006 s^−1 and KM = 6.6 ± 0.7 µM) for the substrate were obtained by fitting the data to the Michaelis-Menten equation (Supplementary Fig. 8a).
The enzymatic assay for Pgp3 activity was determined using a fluorescein isothiocyanate (FITC) and 4′-([4′-(Dimethylamino)phenyl]-azo)-benzoic acid (DABCYL) pair for FRET. […] The excitation and emission spectra were set at 495 nm and 525 nm, respectively. Pgp3 (0.1 μM) in 20 mM HEPES pH 7.5, 200 mM NaCl, and 0.4 μM of zinc was used in this assay. The reaction was initiated by adding 3 μL of 0.015–2 mM substrate (final 1.56–200 μM) in the total volume of 30 μL of the reaction mixture. Initial velocities were calculated using slopes of fluorescence signal intensity in 3 min after the initiation of the reaction. In order to elucidate the inhibition mechanism of BMK-S301, initial velocities with various concentrations of substrates were measured in the presence of 40 μM BMK-S301. […] The same method was used for the determination of the IC50 values for inhibitors. Inhibitors in each concentration were pre-incubated with 0.1 μM of Pgp3 for 1 h on ice, and initial velocities were determined for 0.1, 10, 50, 100, 200, 500, and 1000 μM of each inhibitor in reaction with 10 μM of substrate. The IC50 values were calculated using GraphPad Prism 7.

For a further series, the target named is Pgp3 H247A variant. The experiment in a line: ITC with inactive Pgp3 H247A variant. It is filed as binding, C. jejuni. The conditions noted are these: ITC at 298 K, Pgp3 H247A variant (used to prevent turnover of substrate). As to the method:
as §1
Using a micro-syringe, 2.5 μL of each inhibitor (2.25 mM) was added at intervals of 200 s to the Pgp3 solution in the cell with gentle stirring (125 rpm). The same ITC condition was applied to evaluate the KD values of BMK-S101 for each Pgp3 variant. All data were fitted to the single-binding-site model. Fitted curves were generated using GraphPad Prism 7. […]

In series [1] the target is Pgp3 H247A variant (peptidoglycan peptidase 3, Campylobacter jejuni, Glu21-Gln273) (C. jejuni (strain ATCC 33560)). The experiment in a line: ITC. (In general: Isothermal titration calorimetry measures the heat released or taken up as one component is titrated into another.)
Where [2] appears, read: substrate turnover by Pgp3, Michaelis-Menten fit.

“And” between values parts separate entries of the source, which are not always exact repeats. Equal values may be shown once.

As for `CC(=O)N[C@@H](CCC[C@@H](NC(C)=O)C(=O)O)C(=O)N[C@H](C)C(=O)NO` [BMK-S101], the Kd (usually the concentration at which binding is half-saturated) was 2.3 ± 0.8 µM at Pgp3 WT, 28.3 ± 5.8 µM on Pgp3 S169A, 17.8 ± 0.8 µM on Pgp3 R195A and 10.4 ± 2.6 µM on Pgp3 H216A. The “concentrations without any detectable changes in the cell shape” value in the series on C. jejuni ATCC 33560 WT is not above 156 µM. Further, in the series with C. jejuni ATCC 33560 WT, the “minimum concentration causing morphological changes (helical to curved-rod)” value was more than 313 μM.
`CC(=O)N[C@@H](CCN(CC(=O)O)Cc1ccccc1)C(=O)N[C@H](C)C(=O)NO` [BMK-S201] registered an equilibrium dissociation constant (Kd) on Pgp3 WT of 1.3 ± 0.1 µM. Besides, in the series on C. jejuni (ATCC 33560), the “µM (concentration in LC-MS sample)” value was 0.024 µM and 0.040 µM and 0.056 µM; the “nmol/1011 CFUs” value was 0.60 nmol/1011 CFUs and 0.97 nmol/1011 CFUs and 1.37 nmol/1011 CFUs; the Total nmol was 0.0048 nmol and 0.0079 nmol and 0.0112 nmol.
`CC(=O)N[C@@H](CCNCC(=O)O)C(=O)N[C@H](C)C(=O)NO` [BMK-S202] came in with a Kd at Pgp3 WT of 6.6 ± 0.3 µM. Moreover, the “minimum concentration causing morphological changes (helical to curved-rod)” value with C. jejuni ATCC 33560 WT is reported as 25~50 μM.
Compound `CC(=O)N[C@@H](CCN(CC(=O)O)CC1CCCC1)C(=O)N[C@H](C)C(=O)NO` [BMK-S203] registered a Kd at Pgp3 WT of 1.8 ± 0.4 µM. Moreover, the “minimum concentration causing morphological changes (helical to curved-rod)” value in the series on C. jejuni ATCC 33560 WT is recorded as 25~50 μM. The “intracellular concentration (accumulation)” value in the series with C. jejuni (ATCC 33560) (100 μM compound, 37 °C, 20 min, LC-MS, mean) is listed as 0.3 ± 0.1 nmole/10^11 CFU. Besides, in the series with C. jejuni (ATCC 33560), the “µM (concentration in LC-MS sample)” value was 0.0294 µM and 0.0222 µM and 0.0293 µM; the “nmol/1011 CFUs” value was 0.333 nmol/1011 CFUs and 0.240 nmol/1011 CFUs and 0.327 nmol/1011 CFUs; the Total nmol is 0.00294 nmol and 0.00222 nmol and 0.00293 nmol.
In turn, `NS(=O)(=O)c1ccc(CC(=O)NCC(=O)NO)cc1` [BMK-S302] registered a Kd on Pgp3 WT of 9.9 ± 1.5 µM. In addition, the IC50 – broadly, the concentration that inhibits the measured activity by half – at Pgp3 is 244.6 ± 1.4 µM. The “minimum concentration causing morphological changes (helical to curved-rod)” value with C. jejuni ATCC 33560 WT came out at 100 μM.
The matching figures for `NS(=O)(=O)c1ccc(-c2ccc(CC(=O)NO)cc2)cc1` [BMK-S303]: 1.4 ± 0.4 µM, 22.3 ± 1.5 µM and 400 μM.
On Pgp3 H247A variant, “Ac-L-Ala^1-γ-D-Glu^2-mDAP^3-D-Ala^4−D-Ala^5 [pentapeptide]” returned a Kd of 6.8 ± 0.3 µM.
As for “FITC-L-Ala^1-D-Glu^2-mDAP^3-D-Ala^4-L-Lys^5-DABCYL [FRET substrate, reference compound]”, at Pgp3 (setting [2]), the Km (as a rule, the substrate concentration at which the rate is half of its maximum) is 6.6 ± 0.7 µM and the kcat (usually the maximal rate divided by the concentration of active sites) was determined as 0.0209 ± 0.0006 s⁻¹.
Consider “pentapeptide (Ac-L-Ala1-γ-D-Glu2-mDAP3-D-Ala4-D-Ala5), peptidoglycan stem peptide”, for which the Kd in [1] is 6.8 µM.
